# Columns and labels:
# [1] = log P determination by HPLC on reversed-phase column (EEC Directive 79/831 Annex V.A8); format: physicochemical; settings: reversed-phase HPLC column (C 18); pH 2.3; HPLC reversed-phase C 18, 43° C.; 0.1% aqueous phosphoric acid/acetonitrile
# Experimental: The log P values given in the Tables and Preparation Examples above are determined in accordance with EEC Directive 79/831 Annex V.A8 by HPLC (High Performance Liquid Chromatography) on reversed-phase column (C 18). Temperature: 43° C. The determination is carried out in the acidic range at pH 2.3 using the mobile phases 0.1% aqueous phosphoric acid and acetonitrile; linear gradient from 10% acetonitrile to 90% acetonitrile. Calibration is carried out using unbranched alkan-2-ones (having 3 to 16 carbon atoms) with known log P values (determination of the log P values by the retention times using linear interpolation between two successive alkanones).
# Puccinia recondita = assay: Puccinia test (wheat)/protective; format: in vivo; settings: protective, application rate 1000 ppm, evaluation 10 days after inoculation
# Experimental: (§1) [table] To produce a suitable preparation of active compound, 1 part by weight of active compound is mixed with the stated amounts of solvent and emulsifier, and the concentrate is diluted with water to the desired concentration. To test for protective activity, young plants are sprayed with the active compound preparation at the stated application rate. After the spray coating has dried on, the plants are sprayed with a conidia suspension of Puccinia recondita. The plants remain in an incubation cabin at 20° C. and 100% relative atmospheric humidity for 48 hours. The plants are then placed in a greenhouse at a temperature of about 20° C. and a relative atmospheric humidity of 80% to promote the development of rust pustules. Evaluation is carried out 10 days after the inoculation. 0% means an efficacy which corresponds to that of the control, whereas an efficacy of 100% means that no infection is observed.
# Pyrenophora teres = Pyrenophora teres test (barley)/protective; format: in vivo; settings: protective, application rate 1000 ppm, evaluation 8 days after inoculation
# Experimental: as §1, with “of Pyrenophora teres.” for “of Puccinia recondita.”, “of 80%.” for “of 80% to promote the development of rust pustules.”, “out 8” for “out 10”
# Botrytis cinerea = assay: Botrytis test (cucumber)/protective; format: in vivo; settings: protective, application rate 500 ppm, evaluation 5-6 days after inoculation
# Experimental: (§2) [table] To produce a suitable preparation of active compound, 1 part by weight of active compound is mixed with the stated amounts of solvent and emulsifier, and the concentrate is diluted with water to the desired concentration. To test for protective activity, young cucumber plants are sprayed with the active compound preparation at the stated application rate. 1 day after the treatment, the plants are inoculated with a spore suspension of Botrytis cinerea and then remain at 100% relative humidity and 20° C. for 48 h. The plants then remain at 96% relative atmospheric humidity and a temperature of 13° C. Evaluation is carried out 5-6 days after the inoculation. 0% means an efficacy which corresponds to that of the control, whereas an efficacy of 100% means that no infection is observed.
# Alternaria solani = assay: Alternaria test (tomato)/protective; format: in vivo; settings: protective, application rate 500 ppm, evaluation 7 days after inoculation
# Experimental: as §2, with “To test for protective activity, young cucumber plants are sprayed with the active compound preparation at the stated application rate.” left out, “Alternaria solani” for “Botrytis cinerea”, “24” for “48”, “20°” for “13°”, “7” for “5-6”
structure (smiles),measurement,setting,value
"CCn1cc(C(=O)Nc2ccc(F)cc2-c2ccc(Cl)c(Cl)c2)c(C(F)F)n1 [Example 1, N-(3′,4′-dichloro-5-fluorobiphenyl-2-yl)-3-(difluoromethyl)-1-ethyl-1H-pyrazole-4-carboxamide]",chromatographic logP,[1],3.61
"CCn1cc(C(=O)Nc2ccc(F)cc2-c2ccc(Cl)c(F)c2)c(C(F)F)n1 [Example 2, N-(4′-chloro-3′,5-difluorobiphenyl-2-yl)-3-(difluoromethyl)-1-ethyl-1H-pyrazole-4-carboxamide]",chromatographic logP,[1],3.34
Cn1nc(C(C)(C)C)c(C(=O)Nc2ccc(F)cc2-c2ccc(Cl)c(Cl)c2)c1Cl [Example 5],chromatographic logP,[1],4.53
CCn1cc(C(=O)Nc2ccc(F)cc2-c2ccc(Cl)c(Cl)c2)c(C(F)F)n1 [drawing 16],Efficacy in %,Puccinia recondita,95%
CCn1cc(C(=O)Nc2ccc(F)cc2-c2ccc(Cl)c(Cl)c2)c(C(F)F)n1 [drawing 17],Efficacy in %,Pyrenophora teres,100%
Cn1nc(C(C)(C)C)c(C(=O)Nc2ccc(F)cc2-c2ccc(Cl)c(Cl)c2)c1Cl [drawing 18],Efficacy in %,Botrytis cinerea,70%
CCn1cc(C(=O)Nc2ccc(F)cc2-c2ccc(Cl)c(Cl)c2)c(C(F)F)n1 [drawing 19],Efficacy in %,Alternaria solani,95%
CCn1cc(C(=O)Nc2ccc(F)cc2-c2ccc(Cl)c(F)c2)c(C(F)F)n1 [drawing 20],Efficacy in %,Alternaria solani,95%

# From patent publication US20090069398A1, “Pyrazolyl Carboxamides” (Bayer CropScience AG, priority 2005, published 2009)
